Like-named read-outs stand apart in the source and are kept apart here.
How the values were obtained:
Test in all cases: Test B pre-/postemergence plant response
Type in all cases: in vivo
[1] = test system: velvetleaf (Abutilon theophrasti); details: Abutilon theophrasti, pre-emergence, Preemergence, read-out: Plant response rating, Velvetleaf
How it was run: (§1)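 Visual scoring from 0 (no effect) to 100 (complete control) against untreated controls was done 13 to 15 days after greenhouse treatment. Chemicals were formulated in a surfactant-containing non-phytotoxic solvent and applied to soil preemergence or to 1- to 4-leaf (2-18 cm) plants postemergence.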

[2] = test system: morningglory (Ipomoea coccinea); details: Ipomoea, read-out: Plant response rating, Morningglory; for pest or weed control at 16 g/ha: 16 g ai/ha; for pest or weed control at 31 g/ha: 31 g ai/ha, 100 complete control; for pest or weed control at 62 g/ha: 62 g ai/ha; for pest or weed control at 125 g/ha: 125 g ai/ha
How it was run: as §1

[3] = test system: eastern black (E.B.) nightshade (Solanum ptycanthum); details: Solanum, pre-emergence, Preemergence, read-out: Plant response rating, Nightshade, E. B.
How it was run: as §1

[4] = test system: yellow nutsedge (Cyperus esculentus); details: Cyperus, read-out: Plant response rating, Nutsedge, Yellow; for pest or weed control at 16 g/ha: 16 g ai/ha; for pest or weed control at 31 g/ha: 31 g ai/ha, 100 complete control; for pest or weed control at 62 g/ha: 62 g ai/ha; for pest or weed control at 125 g/ha: 125 g ai/ha
How it was run: as §1

[5] = test system: blackgrass (Alopecurus myosuroides); details: Alopecurus myosuroides, read-out: Plant response rating, Blackgrass; for pest or weed control at 16 g/ha: 16 g ai/ha; for pest or weed control at 31 g/ha: 31 g ai/ha, 100 complete control; for pest or weed control at 62 g/ha: 62 g ai/ha; for pest or weed control at 125 g/ha: 125 g ai/ha
How it was run: as §1

[6] = test system: bermudagrass (Cynodon dactylon); details: Cynodon dactylon, read-out: Plant response rating, Bermudagrass; for pest or weed control at 16 g/ha: 16 g ai/ha; for pest or weed control at 31 g/ha: 31 g ai/ha, 100 complete control; for pest or weed control at 62 g/ha: 62 g ai/ha; for pest or weed control at 125 g/ha: 125 g ai/ha
How it was run: as §1

[7] = test system: giant foxtail (Setaria faberii); details: Setaria faberi, read-out: Plant response rating, Foxtail, Giant; for pest or weed control at 16 g/ha: 16 g ai/ha; for pest or weed control at 31 g/ha: 31 g ai/ha, 100 complete control; for pest or weed control at 62 g/ha: 62 g ai/ha; for pest or weed control at 125 g/ha: 125 g ai/ha
How it was run: as §1

[8] = 31 g ai/ha, 0 to 100 scale, 0 no effect, 100 complete control
[9] = post-emergence, Postemergence, scale 0 to 100
[10] = post-emergence, Postemergence, scale 0 to 100, 0 no effect
[11] = pre-emergence, Preemergence, scale 0 to 100 (0 no effect, 100 complete control)
[12] = pre-emergence, Preemergence, 0 to 100 scale, 0 no effect
[13] = pre-emergence, Preemergence, scale 0 to 100

Which pest or weed control at 16 g/ha ([1]; 16 g ai/ha, scale 0 to 100 (0 no effect, 100 complete control)) does the source give for `CCc1cc(-c2ccc(C(F)(F)F)cc2)nn1-c1c(O)cnn(C)c1=O` [Compound 11, 4-[5-ethyl-3-[4-(trifluoromethyl)phenyl]-1H-pyrazol-1-yl]-5-hydroxy-2-methyl-3(2H)-pyridazinone] here?
The pest or weed control at 16 g/ha was 0%.

What about the pest or weed control at 31 g/ha [1, 8] of the same compound?
The pest or weed control at 31 g/ha was 0%.

And the pest or weed control at 62 g/ha ([1]; 62 g ai/ha, scale 0 to 100)?
The pest or weed control at 62 g/ha was 0%.

What about the pest or weed control at 125 g/ha ([1]; 125 g ai/ha, scale 0 to 100) of the same compound?
Its pest or weed control at 125 g/ha is 0%.

What about the pest or weed control at 16 g/ha [2, 9] of the same compound?
The pest or weed control at 16 g/ha was 0%.

What about the pest or weed control at 31 g/ha [2, 10] of the same compound?
The pest or weed control at 31 g/ha was 0%.

What about the pest or weed control at 62 g/ha [2, 9] of the same compound?
Its pest or weed control at 62 g/ha is 0%.

And the pest or weed control at 125 g/ha [2, 9]?
The pest or weed control at 125 g/ha was 0%.

What about the pest or weed control at 16 g/ha [2, 11] of the same compound?
The pest or weed control at 16 g/ha was 0%.

What about the pest or weed control at 31 g/ha [2, 12] of the same compound?
Its pest or weed control at 31 g/ha is 0%.

What about the pest or weed control at 62 g/ha [2, 13] of the same compound?
Its pest or weed control at 62 g/ha is 0%.

And the pest or weed control at 125 g/ha [2, 13]?
Its pest or weed control at 125 g/ha is 0%.

What about the pest or weed control at 31 g/ha [3, 8] of the same compound?
Its pest or weed control at 31 g/ha is 0%.

And the pest or weed control at 62 g/ha ([3]; 62 g ai/ha, scale 0 to 100)?
Its pest or weed control at 62 g/ha is 0%.

And the pest or weed control at 125 g/ha ([3]; 125 g ai/ha, scale 0 to 100)?
The pest or weed control at 125 g/ha was 0%.

What about the pest or weed control at 16 g/ha [4, 9] of the same compound?
Its pest or weed control at 16 g/ha is 0%.

What about the pest or weed control at 31 g/ha [4, 10] of the same compound?
Its pest or weed control at 31 g/ha is 0%.

And the pest or weed control at 62 g/ha [4, 9]?
The pest or weed control at 62 g/ha was 0%.

What about the pest or weed control at 125 g/ha [4, 9] of the same compound?
Its pest or weed control at 125 g/ha is 0%.

What about the pest or weed control at 16 g/ha [4, 11] of the same compound?
Its pest or weed control at 16 g/ha is 0%.

What about the pest or weed control at 31 g/ha [4, 12] of the same compound?
The pest or weed control at 31 g/ha was 0%.

And the pest or weed control at 62 g/ha [4, 13]?
Its pest or weed control at 62 g/ha is 0%.

What about the pest or weed control at 125 g/ha [4, 13] of the same compound?
Its pest or weed control at 125 g/ha is 0%.

And the pest or weed control at 16 g/ha [5, 9]?
The pest or weed control at 16 g/ha was 100%.

And the pest or weed control at 31 g/ha [5, 10]?
The pest or weed control at 31 g/ha was 100%.

What about the pest or weed control at 62 g/ha [5, 9] of the same compound?
Its pest or weed control at 62 g/ha is 100%.

What about the pest or weed control at 125 g/ha [5, 9] of the same compound?
The pest or weed control at 125 g/ha was 100%.

What about the pest or weed control at 16 g/ha [5, 11] of the same compound?
Its pest or weed control at 16 g/ha is 100%.

What about the pest or weed control at 31 g/ha [5, 12] of the same compound?
Its pest or weed control at 31 g/ha is 100%.

And the pest or weed control at 62 g/ha [5, 13]?
The pest or weed control at 62 g/ha was 100%.

What about the pest or weed control at 125 g/ha [5, 13] of the same compound?
The pest or weed control at 125 g/ha was 100%.

And the pest or weed control at 16 g/ha [6, 9]?
Its pest or weed control at 16 g/ha is 100%.

What about the pest or weed control at 31 g/ha [6, 10] of the same compound?
The pest or weed control at 31 g/ha was 100%.

And the pest or weed control at 62 g/ha [6, 9]?
Its pest or weed control at 62 g/ha is 100%.

And the pest or weed control at 125 g/ha [6, 9]?
Its pest or weed control at 125 g/ha is 100%.

What about the pest or weed control at 16 g/ha [6, 11] of the same compound?
The pest or weed control at 16 g/ha was 100%.

What about the pest or weed control at 31 g/ha [6, 12] of the same compound?
The pest or weed control at 31 g/ha was 100%.

What about the pest or weed control at 62 g/ha [6, 13] of the same compound?
Its pest or weed control at 62 g/ha is 100%.

What about the pest or weed control at 125 g/ha [6, 13] of the same compound?
The pest or weed control at 125 g/ha was 100%.

And the pest or weed control at 16 g/ha [7, 9]?
The pest or weed control at 16 g/ha was 100%.

And the pest or weed control at 31 g/ha [7, 10]?
The pest or weed control at 31 g/ha was 100%.

What about the pest or weed control at 62 g/ha [7, 9] of the same compound?
Its pest or weed control at 62 g/ha is 100%.

And the pest or weed control at 125 g/ha [7, 9]?
Its pest or weed control at 125 g/ha is 100%.

And the pest or weed control at 16 g/ha [7, 11]?
The pest or weed control at 16 g/ha was 90%.

And the pest or weed control at 31 g/ha [7, 12]?
Its pest or weed control at 31 g/ha is 90%.

And the pest or weed control at 62 g/ha [7, 13]?
Its pest or weed control at 62 g/ha is 100%.

What about the pest or weed control at 125 g/ha [7, 13] of the same compound?
Its pest or weed control at 125 g/ha is 100%.

From US20100267561A1, “HERBICIDAL PYRIDAZINONE DERIVATIVES” (priority 2007, published 2010)
